From ChEMBL document CHEMBL1201862, “PubChem BioAssay data set” (2004)
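1) Cells in 96-well plates. 2) Compound, 48 h, 5 concentrations. 3) Linear interpolation between surrounding doses. 4) Unreached endpoint = highest concentration. At the GI50, growth is halved.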 Calls of active or inactive are those of the source. Cut-off read from the data, not from the text of the source: active = GI50 up to about 1.1 µM and inactive = higher.

What was measured:
Assay in all cases: inhibition of tumour cell growth, NCI panel, 48 h
[1] = system: 786-0
[2] = system: A549
[3] = system: ACHN
[4] = system: BT-549
[5] = system: CAKI-1
[6] = system: HT-29
[7] = system: Hs-578T
[8] = system: IGROV-1
[9] = system: KM12
[10] = system: MDA-MB-231
[11] = system: MOLT-4
[12] = system: NCI-H460
[13] = system: OVCAR-8
[14] = system: SF-295
[15] = system: SF-539
[16] = system: SK-MEL-28
[17] = system: SK-OV-3
[18] = system: SR
[19] = system: T47D
[20] = system: UACC-257

SMILES | GI50 [1] | GI50 [2] | GI50 [3] | GI50 [4] | GI50 [5] | GI50 [6] | GI50 [7] | GI50 [8] | GI50 [9] | GI50 [10] | GI50 [11] | GI50 [12] | GI50 [13] | GI50 [14] | GI50 [15] | GI50 [16] | GI50 [17] | GI50 [18] | GI50 [19] | GI50 [20]
O=C(O)C1C2c3ccccc3C(c3ccccc32)C1C(=O)NCC1CC1 (stereo not given) | > 100 µM (inactive) | 62.2 µM (inactive) | 78 µM (inactive) | 60 µM (inactive) | > 100 µM (inactive) | 71.6 µM (inactive) | 63.5 µM (inactive) | 72.6 µM (inactive) | 55.3 µM (inactive) | > 100 µM (inactive) | 29.9 µM (inactive) | 40.2 µM (inactive) | 55 µM (inactive) | 46.2 µM (inactive) | > 100 µM (inactive) | > 100 µM (inactive) | 56.2 µM (inactive) | 45 µM (inactive) | 56.8 µM (inactive) | 19.1 µM (inactive)
Clc1ccc(Cc2nc3cc(CCN4CCN(c5ccccc5)CC4)ccc3[nH]2)cc1 | 6.87 µM (inactive) | 13.4 µM (inactive) | 19.5 µM (inactive) | 16.4 µM (inactive) | 14.4 µM (inactive) | 5.58 µM (inactive) | 20.3 µM (inactive) | 27.5 µM (inactive) | 11.3 µM (inactive) | 13 µM (inactive) | 6.62 µM (inactive) | 12.9 µM (inactive) | 17 µM (inactive) | 12.3 µM (inactive) | 17.3 µM (inactive) | 19.1 µM (inactive) | 17.9 µM (inactive) | 8.02 µM (inactive) | 7.01 µM (inactive) | 5.42 µM (inactive)
COC1=C2CC(C)CC(OC)C(OC(=O)CN)[C@H](C)/C=C(\C)C(OC(N)=O)C(OC)/C=C\C=C(/C)C(=O)NC(=CC1=O)C2=O (stereo not given in full) | 0.429 µM (active) | 9.73 µM (inactive) | 0.446 µM (active) | 1.09 µM (active) | 1.46 µM (inactive) | 0.306 µM (active) | 3.79 µM (inactive) | 0.453 µM (active) | 1.24 µM (inactive) | 0.42 µM (active) | 0.344 µM (active) | 6.14 µM (inactive) | 0.94 µM (active) | 3.84 µM (inactive) | 1.24 µM (inactive) | 0.161 µM (active) | 3.32 µM (inactive) | 0.321 µM (active) | 0.281 µM (active) | 0.359 µM (active)
CCCCCCCCCCCCC1NC(=N)NC2(CCCO2)C1C(=O)OC (stereo not given) | 4.24 µM (inactive) | 13.1 µM (inactive) | 10.4 µM (inactive) | 4.3 µM (inactive) | 12.8 µM (inactive) | 1.92 µM (inactive) | 2.72 µM (inactive) | 2.3 µM (inactive) | 1.84 µM (inactive) | 4.12 µM (inactive) | 1.75 µM (inactive) | 2.99 µM (inactive) | 4.68 µM (inactive) | 9.73 µM (inactive) | 4.9 µM (inactive) | 5.52 µM (inactive) | 10 µM (inactive) | 2.33 µM (inactive) | 6.4 µM (inactive) | 4.3 µM (inactive)
N#C[C@H](c1nc2ccccc2s1)c1nc2ccccc2nc1Cl | > 100 µM (inactive) | 32.4 µM (inactive) | 14.2 µM (inactive) | 4.79 µM (inactive) | > 100 µM (inactive) | > 100 µM (inactive) | 94.6 µM (inactive) | > 100 µM (inactive) | 80.9 µM (inactive) | > 100 µM (inactive) | > 100 µM (inactive) | 18.6 µM (inactive) | > 100 µM (inactive) | 17.1 µM (inactive) | 37 µM (inactive) | > 100 µM (inactive) | 23.6 µM (inactive) | > 100 µM (inactive) | > 100 µM (inactive) | 14.7 µM (inactive)
CC(C)NC(=O)OCc1c(COC(=O)NC(C)C)c(-c2ccc[n+](COC(=O)C(C)(C)C)c2)n2c1CCC2 | 40.7 µM (inactive) | 99.1 µM (inactive) | 38.8 µM (inactive) | > 100 µM (inactive) | 27.6 µM (inactive) | > 100 µM (inactive) | > 67.5 µM (inactive) | > 80.7 µM (inactive) | > 100 µM (inactive) | > 100 µM (inactive) | 48.2 µM (inactive) | 40.9 µM (inactive) | > 76.6 µM (inactive) | 65 µM (inactive) | 43.4 µM (inactive) | > 100 µM (inactive) | > 74.1 µM (inactive) | > 70.8 µM (inactive) | > 100 µM (inactive) | > 100 µM (inactive)
Cc1ccc(C(=O)C(Cl)C(Cl)c2ccc(C)cc2)cc1 (stereo not given) | 2.03 µM (inactive) | 21.9 µM (inactive) | 1.72 µM (inactive) | 3.78 µM (inactive) | 2.59 µM (inactive) | 2.12 µM (inactive) | 21.8 µM (inactive) | 2.58 µM (inactive) | 3.68 µM (inactive) | 5.14 µM (inactive) | 2.03 µM (inactive) | 8.38 µM (inactive) | 2.72 µM (inactive) | 11.4 µM (inactive) | 2.49 µM (inactive) | 2.68 µM (inactive) | 15.2 µM (inactive) | 1.82 µM (inactive) | 2.08 µM (inactive) | 1.92 µM (inactive)
COc1ccc(OC)c2c1C[C@@H]1C(C#N)N3[C@H](Cc4c(OC)ccc(OC)c4[C@@H]3C)C(=O)N1[C@H]2C (stereo not given in full) | 3.01 µM (inactive) | 9.53 µM (inactive) | 2.8 µM (inactive) | 1.97 µM (inactive) | 4.72 µM (inactive) | 8.05 µM (inactive) | 4.42 µM (inactive) | 4.56 µM (inactive) | 2.77 µM (inactive) | 2.08 µM (inactive) | 2.43 µM (inactive) | 7.85 µM (inactive) | 2.38 µM (inactive) | 14.9 µM (inactive) | 2.5 µM (inactive) | 3.03 µM (inactive) | 11.9 µM (inactive) | 2.15 µM (inactive) | 3.11 µM (inactive) | 2.51 µM (inactive)
